Test results: patent EP2402020B1, “Pharmaceutical composition comprising extracts of Bupleurum krylovianum for use in the treatment of arthritis and rheumatoid arthritis” (Industrial Technology Research Institute, priority 2010, dated 2012)
Values after ≈ are worked out from the molar mass of the structure shown. Each block holds one molecule with its values, some of them ahead of it.

How the values were obtained:
[1] = tested on: TNF-α; test: TNF-α excretion by LPS-stimulated, PMA-activated U937 cells (ELISA); format: cell-based, human; conditions: activated U937, 30 minutes preincubation, LPS stimulation 4 hours, supernatant ELISA
Method: The cell line, U937 (human monocyte cell line), was incubated in RPMI medium containing 50 ng/ml PMA (phorbol 12-myristate 13-acetate) (Sigma) and 10% fetal bovine serum (Moor et. al., Roswell Park Memorial Institute) for 24 hours. The cell line was then moved to the RPMI medium without PMA for further 48 hours. The activated U937 was seeded into a 96-well plate in a concentration of 1.6×10^5 cell/well. The wells were added 12.5 µg/ml, 25 µg/ml, 50 µg/ml and 100 µg/ml of kaerophyllin and 1 µg/ml, 3 µg/ml, 10 µg/ml and 30 µg/ml of isokaerphyllin and 10 µl of buffer, respectively. Each well was adjusted to a final volume of 190 µl. The plate was reacted under 37°C for 30 minutes. Each well was added 10 µl of 20 µg/ml LPS to stimulate cells. After 4 hours under 37°C, the plate was centrifuged to collect the supernatants.
The amount of TNF-α in the supernatant was measured by ELISA (R&D System®) based on the control (DMSO). Meanwhile, the cell viability was measured by MTT assay (Sigma).

[2] = tested on: IL-6; test: IL-6 excretion by LPS-stimulated, PMA-activated U937 cells (ELISA); format: cell-based, human; conditions: activated U937, 30 minutes preincubation, LPS stimulation 16-18 hours, supernatant ELISA
Method: The cell line, U937, was cultured like Example 13. The activated U937 was /s then seeded in a 96-well plate in a concentration of 1.6×10^5 cell/well. The wells were added 6.3 µg/ml, […], 25 µg/ml and 50 µg/ml of kaerophyllin and 3.8 µg/ml, 7.5 µg/ml, 15 µg/ml and 30 µg/ml of isokaerphyllin and 10 µl of buffer, respectively. Each well was adjusted to a final volume of 190 µl. The plate was put under 37°C for 30 minutes. Each well was added 10µl of 20 µg/ml LPS to stimulate cells. After 16-18 hours under 37°C, the plate was centrifuged to collect the supernatants.
The amount of IL-6 in the supernatant was measured by ELISA (R&D System®) based on the control (DMSO). Meanwhile, the cell viability was measured by MTT assay (Sigma).

[3] = tested on: carrageenan induced hindpaw edema; test: Carrageenan induced hindpaw edema in a rat model (plethysmometer); format: in vivo, Long-Evan rats; conditions: 3 mg/kg fed 1 hour before carrageenan (positive control)
Method: Long-Evan rats were fed with the extract (a) in Example 5 (i) in an amount of 250mg/kg, 500 mg/kg, 1000mg/kg, respectively. The positive control was fed with 3mg/kg of indomethacin (NSAID). The negative control was fed with 10ml/kg of 2% Tween 80 as a carrier After 1 hour, the rats were injected 0.1ml of 1% carrageenan on the left hindpaw. The volume of the rat's left hindpaw was measured by plethysmometer (Stoelting) at the 0, 1.5th, and 3rd hour after injection. The inhibition was calculated by the formula :
Inhibition (%)=(Nt-Nv)/Nv × 100
In the formula, Nt represents the left hindpaw volume of the rat fed with the ethanol extract; Nv represents the left hindpaw of the rat fed with the carrier.

[4] = tested on: TNF-α; test: TNBS enteritis mouse model: TNF-α in colon infusion; format: in vivo, BABL/c mice; conditions: 0.6mg/kg fed + 1.75mg of TNBS into the colon; colon infusion after 48 hours; negative value = enhanced excretion
Source text: (§1) The BABL/c mice were categorized into 4 groups. Each group had 6 […].

[5] = tested on: IL-6; test: TNBS enteritis mouse model: IL-6 in colon infusion; format: in vivo, BABL/c mice; conditions: 0.6mg/kg fed + 1.75mg of TNBS into the colon; colon infusion after 48 hours; negative value = enhanced excretion
Source text: as §1

Molecule: cis-(3,4-dimethoxybenzylidene)-β-(3,4-methylenedioxylbenzyl)-γ-butyrolactone [isokaerophyllin]
IC50 value (inhibition of the excretion of TNF-α) [1]: 18 ± 4 µg/mL
IC50 value (inhibition of the excretion of IL-6) [2]: 24 ± 6 µg/mL

IC50 ([1]; Homo sapiens, U-937, read-out: IC50 value (inhibition of the excretion of TNF-α)): 44 ± 5 µg/mL (≈ 119 µM)
IC50 ([2]; Homo sapiens, U-937, read-out: IC50 value (inhibition of the excretion of IL-6)): 13 ± 2 µg/mL (≈ 35.3 µM)
Molecule: COc1ccc(/C=C2/C(=O)OC[C@@H]2Cc2ccc3c(c2)OCO3)cc1OC [kaerophyllin, trans-(3,4-dimethoxybenzylidene)-β-(3,4-methylenedioxylbenzyl)-γ-butyrolactone]

Molecule: COc1ccc2c(c1)c(CC(=O)O)c(C)n2C(=O)c1ccc(Cl)cc1 [indomethacin]
Inhibition at 0 hour (%) ([3]; left hindpaw volume at 0 hour): 0%
Inhibition at the 1.5th hour (%) ([3]; left hindpaw volume at 1.5th hour): 21%
Inhibition at the 3rd hour (%) ([3]; left hindpaw volume at 3rd hour): 52%

Molecule: C[C@@H]1C[C@H]2[C@@H]3CCC4=CC(=O)C=C[C@]4(C)[C@@]3(F)[C@@H](O)C[C@]2(C)[C@@]1(O)C(=O)CO [DEX, dexamethasone]
Inhibition of TNF-α(%) [4]: 9%
Inhibition of IL-6 (%) [5]: -55%
